Experimental data as given in patent US8846747B2, “Compounds and methods for altering lifespan of eukaryotic organisms” (University of Rochester, priority 2009, dated 2014).

Key:
DeaD strain BB579 = assay: yeast Death of Daughters (DeaD) lifespan assay, reversal of nicotinamide (NAM) lifespan shortening; format: cell-based, S. cerevisiae (yeast); details: for average improvement, 250 nM to 1μM: fold improvement in DeaD lifespan (OD600 at 60 h normalized to no drug control), compound 250 nM to 1μM; for average improvement, 250 nM to 1μM / fold induction at 0.125 µM / average improvement, 0.5 to 100 nM: 0.75 mM NAM; for EC50 / fold induction at 0.125 µM: Saccharomyces cerevisiae; for EC50: BB579, read-out: C50 (concentration that yields half the maximal activity) by DeaD assay; for fold induction at 0.125 µM: BB579, compound 125 nM; for fold induction at 0.125 µM / average improvement, 0.5 to 100 nM: fold improvement in DeaD lifespan; for average improvement, 0.5 to 100 nM: compound 0.5 to 100 nM
Method: The C50 (50% maximal activity) is a measure of the efficacy of a compound as a LAC and is determined by quantifying the dose-response curve for each LAC by DeaD assay in the presence and absence of nicotinamide. The C50 is the concentration of LAC that yields half the maximal activity. Dose response curves will generally peak and then decline. The decline is most likely due to toxicity at higher LAC concentrations. The C50 is determined relative to the maximal lifespan extension (the peak value). C50 values are provided for C1-5.
The compounds listed in Table 1 of Example 3 were assessed for their anti-aging activities using the yeast Death of Daughters (DeaD) explicative lifespan assay. Specifically, the compounds were assessed for their capacity to reverse the lifespan shortening effect of exogenous nicotinamide (NAM), which is a known inhibitor of the anti-aging protein Sir2p (Anderson et al., 2003; Bitterman et al., 2002). These compounds were compared to the activities of known cluster 1 compounds, S3-5, and #3-11.
“Activity” here is defined herein as the fold improvement in DeaD lifespan in the presence of 0.75 mM NAM relative to lifespan in the absence of cluster 1 compounds, over a range of compound concentrations between 0.5 nm-1 μm. This “activity” value is a means of assessing the usefulness of a compound as a LAC. The assays were performed as follows. DeaD strain BB579 was grown overnight in a permissive (galactose-containing) medium to mid-log phase, and then diluted to an OD600 of 0.0001 in restrictive (glucose-containing) medium with 0.75 mM NAM and the compound to be tested. Cells were then incubated at 30° C. for 3 days, with shaking and OD600 measurement every 20 minutes. The OD600 reading after 60 hours in restrictive medium, normalized to the same measurement for the “no drug” control, was used as the number for comparison.
Five of the compounds with higher activity than S3-5 were selected for further study and were designated C1-1, C1-2, C1-3, C1-4, and C1-5 (see Table 2, Example 4). All data in FIGS. 1A(1)-(6) are from media containing 0.75 mM NAM. Note the different ranges of the X axes in FIGS. 1A(1)-(6)—very different C50 values for the compounds of the present invention compared the known C1 cluster compounds. […] All five had C50 values below 50 nM, while the C50 value for S3-5 was about 650 nM, and the C50 for S1-9 was about 350 nM.

[1] = system: strain FY839 (healthy wild-type); assay: Toxicity of compounds by yeast growth assay; format: cell-based; details: FY839, inset in FIG. 2
Method: The toxicity of compounds C1-1, C1-2, C1-3, C1-4, and C1-5 in yeast was assessed by determining their effects on growth of a wild-type yeast strain. FIG. 2 is a graphical representation of the toxicity data. The yeast used was strain FY839 (healthy wild-type) growing in SCD. At 12 hours all were in log phase. […] This concentration is many-fold higher than the effective concentrations of these compounds as assessed by DeaD lifespan assays.

RAW 264.7 cells = assay: LPS-induced TNF-α secretion from RAW 264.7 cells (ELISA); format: cell-based, murine; details: compound 1 micromolar, LPS 10 ng/ml for 6 hrs; FIG. 3
Method: FIG. 3. […] To obtain the data summarized in FIG. 3, RAW […] cells were incubated with Scrims (compounds of present invention) (1 uM), PI3K inhibitor positive control (LY-294002; 25 uM) or vehicle (DMSO) for 1 hr. LPS (10 ng/ml) was added to the medium. 6 hrs post LPS administration medium was collected and analyzed for TNFa levels using ELISA.
In vitro anti-inflammatory activity in RAW 264.7 cells (murine leukaemic monocyte macrophage cell line): Lipopolysaccharide (LPS)-induced secretion of cytokines from RAW cells is a recognized in vitro assay for anti-inflammatory drugs. The anti-inflammatory activities of C1-1, C1-2, C1-3, C1-4, and C1-5 in the RAW cell model. RAW cells exposed to LPS were incubated with each of the five molecules at 1 micromolar concentration. The PIK3 inhibitor LY-294002 was used at 25 micromolar as a positive control. […] LPS was administered at 10 ng/ml for 6-hrs. TNF-α levels were quantified by ELISA assay. Results are presented as % of control with standard deviations of three replicates.

Row | SMILES | average improvement, 250 nM to 1μM (DeaD strain BB579) | fold induction at 0.125 µM (DeaD strain BB579) | also measured
1 | CCCC(=O)C1C(=O)C(C(C)=O)C(=O)CC1CC(C)CCC (stereo not shown) [#3-11, reference compound] | 1.30 |  | 
2 | CCC(=O)C1C(=O)CC(C2CCCCC2)CC1=O (stereo not shown) [SRI# 22788, 1,3-cyclohexanedione, 2-propanoyl-5-cyclohexyl-] |  |  | toxic effects on growth at concentrations below 1 μM [1]: little or no toxic effects on growth; EC50 (DeaD strain BB579): < 50 nM; reduction of secreted TNF-α relative to vehicle treated cells (RAW 264.7 cells): exhibited anti-inflammatory activity
3 | CC(=O)C1C(=O)CC(c2cccs2)CC1=O (stereo not shown) [SRI# 22933, 1,3-cyclohexanedione, 2-acetyl 5-[thien-2-yl]-] |  |  | toxic effects on growth at concentrations below 1 μM [1]: little or no toxic effects on growth; EC50 (DeaD strain BB579): < 50 nM; reduction of secreted TNF-α relative to vehicle treated cells (RAW 264.7 cells): exhibited anti-inflammatory activity
4 | CCCCC1CC(=O)C(C(C)=O)C(=O)C1 (stereo not shown) [SRI# 22942, 1,3-cyclohexanedione, 2-acetyl-5-butyl-] |  |  | toxic effects on growth at concentrations below 1 μM [1]: little or no toxic effects on growth; EC50 (DeaD strain BB579): < 50 nM; reduction of secreted TNF-α relative to vehicle treated cells (RAW 264.7 cells): exhibited anti-inflammatory activity
5 | CCC(=O)C1C(=O)CC(C2CC3C=CC2C3)CC1=O (stereo not shown) [SRI# 22965, 1,3-cyclohexanedione, 2-propanoyl-5-[bicyclo[2.2.1]hept-2-en-5-yl]-] |  |  | EC50 (DeaD strain BB579): < 50 nM; reduction of secreted TNF-α relative to vehicle treated cells (RAW 264.7 cells): exhibited anti-inflammatory activity
6 | CCC(=O)C1C(=O)CC(C2CCCCC2)CC1=O (stereo not shown) [compound 22788] | 2.74 | 3.4 | average improvement, 0.5 to 100 nM (DeaD strain BB579): 1.75
7 | CCC(=O)C1C(=O)CC(c2c(F)cccc2Cl)CC1=O (stereo not shown) [compound 22789] | 2.62 | 2.61 | average improvement, 0.5 to 100 nM (DeaD strain BB579): 1.30
8 | CCC(=O)C1C(=O)CC(c2ccc(F)cc2)CC1=O (stereo not shown) [compound 22790] | 2.64 | 2.85 | average improvement, 0.5 to 100 nM (DeaD strain BB579): 1.37
9 | CCC(=O)C1C(=O)CC(c2ccco2)CC1=O (stereo not shown) [compound 22791] | 2.15 | 1.77 | 
10 | COc1cc(OC)c(C2CC(=O)C(C(=O)C3CC3)C(=O)C2)c(OC)c1 (stereo not shown) [compound 22821] | 1.62 | 1.27 | 
11 | Cc1ccc(C2CC(=O)C(C(=O)C3CC3)C(=O)C2)cc1 (stereo not shown) [compound 22824] | 1.42 | 1.32 | 
12 | O=C1CC(c2ccc(F)cc2)CC(=O)C1C(=O)C1CC1 (stereo not shown) [compound 22835] | 2.21 | 2.48 | 
13 | CC(C)C(=O)C1C(=O)CC(c2ccc(F)cc2)CC1=O (stereo not shown) [compound 22837] | 1.72 |  | 
14 | CC(=O)C1C(=O)CC(c2ccc(Cl)cc2Cl)CC1=O (stereo not shown) [compound 22840] | 1.87 | 2.24 | 
15 | O=C1CC(C2CCCCC2)CC(=O)C1C(=O)c1ccccc1 (stereo not shown) [compound 22845] | 2.11 | 1.99 | 
16 | CC(=O)C1C(=O)CC(c2c(F)cccc2Cl)CC1=O (stereo not shown) [compound 22847] | 2.17 | 3.25 | 
17 | CC(=O)C1C(=O)CC(c2ccco2)CC1=O (stereo not shown) [compound 22848] | 1.58 |  | 
18 | CC(=O)C1C(=O)CC(c2ccc(F)cc2)CC1=O (stereo not shown) [compound 22850] | 1.59 |  | 
19 | CC(=O)C1C(=O)CC(C2CC3C=CC2C3)CC1=O (stereo not shown) [compound 22856] | 2.18 | 3.18 | 
20 | O=C1CC(c2ccccc2)CC(=O)C1C(=O)C1CC1 (stereo not shown) [compound 22878] | 2.11 | 2.62 | 
21 | CC(C)C(=O)C1C(=O)CC(c2ccccc2)CC1=O (stereo not shown) [compound 22880] | 1.59 | 1.49 | 

Row | SMILES | average improvement, 250 nM to 1μM (DeaD strain BB579) | fold induction at 0.125 µM (DeaD strain BB579) | also measured
22 | O=C1CC(c2ccc(Cl)cc2Cl)CC(=O)C1C(=O)C1CC1 (stereo not shown) [compound 22889] | 1.64 |  | 
23 | CC(C)C(=O)C1C(=O)CC(c2ccc(Cl)cc2Cl)CC1=O (stereo not shown) [compound 22890] | 1.46 |  | 
24 | O=C1CC(c2cccs2)CC(=O)C1C(=O)C1CC1 (stereo not shown) [compound 22897] | 1.85 | 1.25 | 
25 | CC(C)C(=O)C1C(=O)CC(c2cccs2)CC1=O (stereo not shown) [compound 22898] | 1.37 |  | 
26 | CCCCCCC1CC(=O)C(C(C)=O)C(=O)C1 (stereo not shown) [compound 22926] | 1.87 | 0.99 | 
27 | CCCCCCC1CC(=O)C(C(=O)CC)C(=O)C1 (stereo not shown) [compound 22927] | 1.43 |  | 
28 | CCC(=O)C1C(=O)CC(c2cccs2)CC1=O (stereo not shown) [compound 22930] | 2.33 | 2.21 | 
29 | CC(=O)C1C(=O)CC(C(C)C)CC1=O (stereo not shown) [compound 22931] | 2.09 | 1.86 | 
30 | CCC(=O)C1C(=O)CC(C(C)C)CC1=O (stereo not shown) [compound 22932] | 1.80 | 1.76 | 
31 | CC(=O)C1C(=O)CC(c2cccs2)CC1=O (stereo not shown) [compound 22933] | 2.55 | 2.71 | average improvement, 0.5 to 100 nM (DeaD strain BB579): 1.70
32 | CC(=O)C1C(=O)CC(c2ccc3c(c2)OCO3)CC1=O (stereo not shown) [compound 22935] | 1.51 |  | 
33 | CCC(=O)C1C(=O)CC(c2ccc3c(c2)OCO3)CC1=O (stereo not shown) [compound 22936] | 1.46 |  | 
34 | CC(=O)C1C(=O)CC(c2cn(C)c3ccccc23)CC1=O (stereo not shown) [compound 22939] | 1.60 |  | 
35 | CCC1CC(=O)C(C(C)=O)C(=O)C1 (stereo not shown) [compound 22941] | 1.62 |  | 
36 | CCCCC1CC(=O)C(C(C)=O)C(=O)C1 (stereo not shown) [compound 22942] | 2.49 | 2.87 | average improvement, 0.5 to 100 nM (DeaD strain BB579): 1.71
37 | CCCCC1CC(=O)C(C(=O)CC)C(=O)C1 (stereo not shown) [compound 22943] | 2.33 | 2.79 | 
38 | CCCCCC1CC(=O)C(C(C)=O)C(=O)C1 (stereo not shown) [compound 22944] | 2.28 | 2.72 | average improvement, 0.5 to 100 nM (DeaD strain BB579): 1.21
39 | CCCCCC1CC(=O)C(C(=O)CC)C(=O)C1 (stereo not shown) [compound 22945] | 2.54 | 1.96 | 
40 | CCCC(=O)C1C(=O)CC(c2cn(C)c3ccccc23)CC1=O (stereo not shown) [compound 22947] | 1.64 |  | 
41 | CCC(=O)C1C(=O)CC(C2CC3C=CC2C3)CC1=O (stereo not shown) [compound 22965] | 2.57 | 3.65 | average improvement, 0.5 to 100 nM (DeaD strain BB579): 1.72
